Legend:
HDL and LDL = settings: reference 37; cited from earlier work
[1] = test system: occlusive myocardial infarction; test: Tissue radioactivity counting of normal and infarcted rabbit myocardium; settings: gamma counting, 48 h
[2] = test system: reperfused hepatic infarction; test: Biodistribution of MIH in rats with reperfused hepatic infarction (tissue radioactivity counting); settings: for Biodistribution, Blood / Biodistribution, Heart / Biodistribution, Kidneys / Biodistribution, Large intestine / Biodistribution, Lungs / Biodistribution, Muscle / Biodistribution, Necrotic liver / Biodistribution, Normal liver / Biodistribution, Small intestine / Biodistribution, Spleen / Biodistribution, Stomach / Biodistribution, Thyroid / Necrotic liver/Blood ratio / Necrotic liver/Intact liver ratio / Necrotic liver/Muscle ratio: i.v., mean ± SD, n = 3
[3] = test system: occlusive myocardial infarction; test: Ex vivo autoradiography of rabbit heart slices
[4] = test system: reperfused hepatic infarction; test: Ex vivo autoradiography of rat liver slices with TTC and H&E staining
[5] = test system: occlusive myocardial infarction; test: In vivo SPECT imaging of rabbit with myocardial infarction; settings: 24 and 48 hours post injection
Protocol: All animal experiments were conducted with the approval of the institutional ethical committee. • 1. […] Occlusive myocardial infarction: A New-Zealand adult rabbit weighing about 5 kg was sedated with intramuscular injection of a mixed solution of Ketalar (ketamine hydrochloride, Pfizer, Brussels, Belgium) at 15 mg/kg and Rompun (xylazine hydrochloride, Bayer, Leverkusen, Germany) at 2.5 mg/kg. The animal was then anaesthetized with an intravenous bolus injection of Nembutal at 15 mg/kg followed by IV infusion of Nembutal at 0.1 mg/kg/min through an ear vein. Under a cold-light laryngoscope with No. 1 pediatric blade (Riester®, Jungingen, Germany), the animal was intubated with a 3.5-mm endotracheal tube, which was then connected to an artificial ventilator (Mark 7 respirator, Bird Corporation, Palm Springs, Calif.). An open chest surgery of left posterolateral thoracotomy was performed. The pericardium was opened to expose the left circumflex coronary artery (LCX). A loose snare loop of a 3-0 silk suture was applied around the artery and tightened with ligature. The chest was closed after evacuation of the pneumothorax.
Two hours after reperfusion of the myocardial infarction, the rabbit was intravenously injected with 130 MBq MIH via an ear vein.
The rabbit imaging measurements were performed using a two-detector gamma camera (E-cam, Siemens Medical Systems, ErIangen, Germany). […]

[6] = quantification of autoradiography image

Cc1cc(O)c2c(=O)c3c(O)cc(O)c4c5c(O)cc(O)c6c(=O)c7c(O)cc(C)c8c1c2c(c34)c(c78)c65 [hypericine, hypericin, reference compound]
binding to HDL and LDL in vivo (HDL and LDL): bind extensively to HDL and LDL

Cc1cc(O)c2c(=O)c3c(O)cc(O)c4c5c(O)c([123I])c(O)c6c(=O)c7c(O)cc(C)c8c1c2c(c34)c(c78)c65 [MIH, mono-[^123I]iodohypericin]
radiotracer concentration in infarcted tissue vs healthy myocardium [1]: 7 fold
uptake in the infarcted region of myocardium [1]: 0.36 % of ID/g
uptake in the normal region of myocardium [1]: 0.05 % of ID/g
concentration ratio necrotic liver vs. blood ([2]; 24 hours p.i.): 17
concentration ratio necrotic liver vs. muscle ([2]; 24 hours p.i.): 57
concentration in necrotic liver tissue relative to intact liver tissue ([2]; 24 h p.i.): 3.2 times
in vivo deiodination (thyroid concentration) ([2]; 24 h p.i.): in vivo deiodination of MIH occurs
Biodistribution, Blood ([2]; 30 min p.i.): 1.34 ± 0.38 % of injected dose per gram tissue
Biodistribution, Heart ([2]; 30 min p.i.): 0.47 ± 0.13 % of injected dose per gram tissue
Biodistribution, Kidneys ([2]; 30 min p.i.): 0.35 ± 0.05 % of injected dose per gram tissue
Biodistribution, Large intestine ([2]; 30 min p.i.): 0.03 ± 0.01 % of injected dose per gram tissue
Biodistribution, Lungs ([2]; 30 min p.i.): 1.60 ± 0.58 % of injected dose per gram tissue
Biodistribution, Muscle ([2]; 30 min p.i.): 0.03 ± 0.01 % of injected dose per gram tissue
Biodistribution, Necrotic liver ([2]; 30 min p.i.): 1.91 ± 0.46 % of injected dose per gram tissue
Biodistribution, Normal liver ([2]; 30 min p.i.): 3.80 ± 1.39 % of injected dose per gram tissue
Biodistribution, Small intestine ([2]; 30 min p.i.): 0.09 ± 0.03 % of injected dose per gram tissue
Biodistribution, Spleen ([2]; 30 min p.i.): 2.19 ± 0.18 % of injected dose per gram tissue
Biodistribution, Stomach ([2]; 30 min p.i.): 0.03 ± 0.00 % of injected dose per gram tissue
Biodistribution, Thyroid ([2]; 30 min p.i.): 0.16 ± 0.02 % of injected dose per gram tissue
Necrotic liver/Blood ratio ([2]; 30 min p.i.): 1.44 ± 0.10
Necrotic liver/Intact liver ratio ([2]; 30 min p.i.): 0.57 ± 0.28
Necrotic liver/Muscle ratio ([2]; 30 min p.i.): 75.80 ± 16.34
Biodistribution, Blood ([2]; 24 h p.i.): 0.10 ± 0.01 % of injected dose per gram tissue
Biodistribution, Heart ([2]; 24 h p.i.): 0.24 ± 0.08 % of injected dose per gram tissue
Biodistribution, Kidneys ([2]; 24 h p.i.): 0.18 ± 0.02 % of injected dose per gram tissue
Biodistribution, Large intestine ([2]; 24 h p.i.): 1.47 ± 0.13 % of injected dose per gram tissue
Biodistribution, Lungs ([2]; 24 h p.i.): 1.06 ± 0.30 % of injected dose per gram tissue
Biodistribution, Muscle ([2]; 24 h p.i.): 0.03 ± 0.00 % of injected dose per gram tissue
Biodistribution, Necrotic liver ([2]; 24 h p.i.): 1.71 ± 0.32 % of injected dose per gram tissue
Biodistribution, Normal liver ([2]; 24 h p.i.): 0.55 ± 0.15 % of injected dose per gram tissue
Biodistribution, Small intestine ([2]; 24 h p.i.): 0.27 ± 0.02 % of injected dose per gram tissue
Biodistribution, Spleen ([2]; 24 h p.i.): 0.43 ± 0.07 % of injected dose per gram tissue
Biodistribution, Stomach ([2]; 24 h p.i.): 0.37 ± 0.13 % of injected dose per gram tissue
Biodistribution, Thyroid ([2]; 24 h p.i.): 9.25 ± 3.25 % of injected dose per gram tissue
Necrotic liver/Blood ratio ([2]; 24 h p.i.): 17.40 ± 1.19
Necrotic liver/Intact liver ratio ([2]; 24 h p.i.): 3.18 ± 0.49
Necrotic liver/Muscle ratio ([2]; 24 h p.i.): 57.09 ± 4.24
binding to HDL and LDL in vivo (HDL and LDL): bind extensively to HDL and LDL
autoradiography distribution of radioactive uptake in heart slice [3]: radioactive uptake appears only in the infarcted region
uptake ratio infarcted tissue limited to subendocardial area vs. control tissue [3, 6]: 16
uptake ratio overall infarcted myocardium vs. intact myocardium [3, 6]: about 6
autoradiography uptake in intact liver ([4]; 30 min p.i.): Pronounced radioactivity uptake
autoradiography uptake in necrotic regions of infarcted liver lobe ([4]; 30 min p.i.): low uptake of MIH
autoradiography uptake in intact liver ([4]; 24 h p.i.): activity from the intact liver has cleared
autoradiography uptake in necrotic regions of infarcted liver tissue ([4]; 24 h p.i.): relatively high uptake of MIH
whole body SPECT, coronal section [5]: only one hot spot in the anatomical area of the heart

From patent US20090274622A1, “NECROSIS AVID TRACER AGENT” (K.U. Leuven Research & Development, priority 2003, published 2009)
